Experimental findings from ChEMBL document CHEMBL6177980 (J Med Chem, 2025) are described below.

In data set [1] the test system is Mammarenavirus choriomeningitidis. Kind of data set: Antiviral activity against LCMV infected in C57BL/6-Prf1tm1Sdz/J mouse assessed as reduction in viral titer in liver treated orally once daily for 7 days by RT-qPCR analysis. The class given is functional, organism-based. The conditions noted are these: dose 1-5 mg/kg, route po, time 7.0 day.
Data set [2] shares this test system. Kind of data set: Antiviral activity against LCMV infected in C57BL/6-Prf1tm1Sdz/J mouse assessed as reduction in viral titer in spleen treated orally once daily for 7 days by RT-qPCR analysis. Format: functional, organism-based. The note with it: dose 1-5 mg/kg, route po, time 7.0 day. In general terms: In qPCR the cycle at which signal appears reflects the starting amount.

Data set [3] is described as follows: Prodrug conversion in Sprague-Dawley rat assessed as AUC (0 to t) of 4'-Fluorouridine metabolite at 6 mg/kg/day, po treated for 7 days by LC-MS/MS analysis. The class given is ADME, organism-based. The conditions noted are these: in vivo, 168 h, time 7 day.
The nature of data set [4]: Prodrug conversion in Beagle dog plasma assessed as parent nucleoside metabolite formation at 1 uM measured up to 60 mins by LC-MS/MS analysis. The class given is ADME, cell-free, Canis lupus familiaris. The conditions noted are these: 1 h.
Data set [5] addresses Voltage-gated inwardly rectifying potassium channel KCNH2 (Homo sapiens, UniProt Q12809). Kind of data set: Inhibition of hERG. The class given is toxicity. (In general: hERG is a cardiac potassium channel; its block is linked to QT prolongation.)
The test system of data set [6] is Mammarenavirus choriomeningitidis. The experiment in a line: In vivo antiviral activity against LCMV infected in C57BL/6-Prf1tm1Sdz/J mouse assessed as improvement in lymphocytes percentage at 1 to 5 mg/kg, po qd treated for 7 days. Format: functional, organism-based. The conditions noted are these: dose 1-5 mg/kg, time 7.0 day.
Data set [7] is described as follows: Prodrug conversion in Sprague-Dawley rat assessed as 4'-Fluorouridine metabolite formation in spleen at 6 mg/kg, po measured for 0.5 to 24 hrs by LC-MS/MS analysis. Format: ADME, organism-based. The note with it: in vivo, time 0.5-24 hrs.
A short description of data set [8]: Toxicity in Sprague-Dawley rat assessed as maximum tolerated dose. The conditions noted are these: in vivo.
Data set [9] is described as follows: Stability in Beagle dog plasma administered orally or intravenously. Format: ADME, cell-free, Canis lupus familiaris. The conditions noted are these: po.
Data set [10] has as its system Mammarenavirus choriomeningitidis. Kind of data set: Antiviral activity against LCMV infected in C57BL/6-Prf1tm1Sdz/J mouse assessed as reduction in viral copy number in lung treated orally once daily for 7 days by RT-qPCR analysis. The note with it: dose 1-5 mg/kg, route po, time 7.0 day. Format: functional, organism-based.
Data set [11] is described as follows: Prodrug conversion in Beagle dog assessed as half life of 4'-Fluorouridine metabolite treated orally or intravenously by LC-MS/MS analysis. The note with it: in vivo, po. Format: ADME, Canis lupus familiaris.
Data set [12] in a line: Prodrug conversion in Sprague-Dawley rat assessed as 4'-Fluorouridine-NTP metabolite formation in brain at 6 mg/kg, po measured for 0.5 to 24 hrs by LC-MS/MS analysis. The class given is ADME, organism-based. The conditions noted are these: in vivo, time 0.5-24 hrs.
Data set [13] can be described thus: Prodrug conversion in Sprague-Dawley rat assessed as Cmax of 4'-Fluorouridine metabolite at 20 mg/kg, po by LC-MS/MS analysis. The class given is ADME, organism-based. The note with it: in vivo.
The nature of data set [14]: Prodrug conversion in Sprague-Dawley rat assessed as 4'-Fluorouridine metabolite formation in thymus at 6 mg/kg, po measured for 0.5 to 24 hrs by LC-MS/MS analysis. The class given is ADME, organism-based. The conditions noted are these: in vivo, time 0.5-24 hrs.
Data set [15] is described as follows: Prodrug conversion in Sprague-Dawley rat assessed as AUC (0 to t) of 4'-Fluorouridine metabolite at 2 mg/kg, po by LC-MS/MS analysis. The note with it: in vivo. Format: ADME, organism-based.
Data set [16] is described as follows: Cmax in fasted Sprague-Dawley rat at 23 mg/kg, po by LC-MS/MS analysis. The class given is ADME, organism-based. The note with it: in vivo.
Data set [17] is described as follows: Stability of compound at pH 4.0 assessed as change in purity at 1 mg/ml incubated for 4 hrs by HPLC analysis. Format: physicochemical. The conditions noted are these: buffer, pH 4, 4 h.
Data set [18] is described as follows: Prodrug conversion in Sprague-Dawley rat plasma assessed as parent nucleoside metabolite formation administered orally or intravenously. The class given is ADME, cell-free. The note with it: po.
A short description of data set [19]: Prodrug conversion in Beagle dog assessed as Cmax of 4'-Fluorouridine metabolite at 10 mg/kg, po by LC-MS/MS analysis. The class given is ADME, organism-based, Canis lupus familiaris. The note with it: in vivo.
Data set [20] in a line: Prodrug conversion in Sprague-Dawley rat assessed as 4'-Fluorouridine metabolite formation in liver at 6 mg/kg, po measured for 0.5 to 24 hrs by LC-MS/MS analysis. The class given is ADME, organism-based. The conditions noted are these: in vivo, time 0.5-24 hrs.
Data set [21] can be described thus: Prodrug conversion in Beagle dog liver microsomes assessed as parent nucleoside metabolite formation at 1 uM measured up to 60 mins in presence of NADPH/UDPGA by LC-MS/MS analysis. The class given is ADME, Canis lupus familiaris, Microsome. The conditions noted are these: 1 h. (In general: Microsomes from liver hold many membrane-bound enzymes, among them those of drug oxidation.)

Data set [22] can be described thus: Prodrug conversion in Sprague-Dawley rat assessed as AUC (0 to t) of 4'-Fluorouridine metabolite at 20 mg/kg, po by LC-MS/MS analysis. The class given is ADME, organism-based. The conditions noted are these: in vivo.
The subject of data set [23] is Mammarenavirus choriomeningitidis. The experiment in a line: In vivo antiviral activity against LCMV infected in C57BL/6-Prf1tm1Sdz/J mouse assessed as appearance of regular splenic nodule structure at 1 to 5 mg/kg, po qd for 7 days. Format: functional, organism-based. The note with it: dose 1-5 mg/kg, time 7.0 day.

Active and inactive are the calls of the source. The calls are words filed in the database; no cut-off is given here. Bounds are passed on as bounds.

Voltage-gated inwardly rectifying potassium channel KCNH2, sequence (Q12809 whole entry): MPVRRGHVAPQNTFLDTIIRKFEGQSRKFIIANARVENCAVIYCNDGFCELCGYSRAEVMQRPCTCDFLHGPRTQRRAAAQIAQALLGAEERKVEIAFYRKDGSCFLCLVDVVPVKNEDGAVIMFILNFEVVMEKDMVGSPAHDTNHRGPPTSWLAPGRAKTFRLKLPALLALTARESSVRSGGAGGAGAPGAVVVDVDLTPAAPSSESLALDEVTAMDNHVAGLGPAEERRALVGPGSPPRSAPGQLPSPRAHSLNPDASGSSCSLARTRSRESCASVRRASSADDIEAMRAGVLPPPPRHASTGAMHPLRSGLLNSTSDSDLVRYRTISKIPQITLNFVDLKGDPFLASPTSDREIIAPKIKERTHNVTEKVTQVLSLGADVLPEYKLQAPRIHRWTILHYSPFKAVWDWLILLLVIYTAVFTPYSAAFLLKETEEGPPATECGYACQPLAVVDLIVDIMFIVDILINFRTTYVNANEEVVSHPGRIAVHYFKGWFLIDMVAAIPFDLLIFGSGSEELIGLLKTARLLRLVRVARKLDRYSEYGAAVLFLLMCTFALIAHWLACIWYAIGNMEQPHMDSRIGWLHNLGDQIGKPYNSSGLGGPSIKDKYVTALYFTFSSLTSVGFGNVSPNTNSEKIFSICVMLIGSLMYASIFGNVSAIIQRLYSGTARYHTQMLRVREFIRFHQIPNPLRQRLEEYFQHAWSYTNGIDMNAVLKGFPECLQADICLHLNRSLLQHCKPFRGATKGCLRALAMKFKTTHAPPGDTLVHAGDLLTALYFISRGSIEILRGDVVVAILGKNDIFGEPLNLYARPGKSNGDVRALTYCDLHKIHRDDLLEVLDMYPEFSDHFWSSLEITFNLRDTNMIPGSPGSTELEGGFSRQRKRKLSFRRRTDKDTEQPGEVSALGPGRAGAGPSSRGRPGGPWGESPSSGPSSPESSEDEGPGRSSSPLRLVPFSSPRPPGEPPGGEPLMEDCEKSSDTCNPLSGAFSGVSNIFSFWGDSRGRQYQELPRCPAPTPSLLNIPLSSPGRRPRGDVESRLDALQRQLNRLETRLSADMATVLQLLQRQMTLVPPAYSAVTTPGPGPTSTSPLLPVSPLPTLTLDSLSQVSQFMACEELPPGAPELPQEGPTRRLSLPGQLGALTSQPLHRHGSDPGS

By MTD is commonly meant the highest dose tested that stayed within the study's limit of toxicity. A word on the Cmax: it is the peak of the concentration-time curve. In the case of `CC(C)C(=O)OC[C@@]1(F)O[C@@H](n2ccc(=O)n(COC(=O)c3cccnc3)c2=O)[C@H](OC(=O)C(C)C)[C@@H]1OC(=O)C(C)C`, the Activity entry was “Dose-dependent-effect” in [1], “Dose-dependent-effect” in [2], “Dose-dependent-effect” in data set [10] and 0% in [17]. The results for the AUCt in [3], in data set [15] and in data set [22] were 4084 ng·h/mL, 962 ng·h/mL and 11325 ng·h/mL, respectively. The Drug metabolism entry in [4], in data set [7], in [12], in [14], in data set [18] and in [20] was “metabolite_detected” each time. In data set [21], the Drug metabolism result is on record as “metabolite_detected”. In addition, in data set [5], the “inhibition (INH)” value was “Not_active”. Also, the result in [6] and in data set [23] was Active. In addition, in [8], the maximum tolerated dose (MTD) is over 500 mg/kg. The Stability result in [9] is given as “Unstable”. Besides, the t1/2 in data set [11] amounted to 1 h. Further, the Cmax in [13] is 1142 ng/mL; in data set [16], 1230 ng/mL; in data set [19] it was 1501 ng/mL.
